Common to all, as to assay type: cell-based
Test [1] has as its system PRMT5 (SDMA) in HAP1 MTAP-deleted cell line. Briefly: SDMA in-cell western assay, HAP1 MTAP-deleted cell line. The conditions noted are these: for IC50 / IC90: Homo sapiens, SDMA in-cell western, HAP1 MTAP-deleted (MTAP-null) cell line; for Hap1 MTAP intact/deleted ratio: ratio of SDMA in-cell western IC50 in HAP1 MTAP-intact to IC50 in HAP1 MTAP-deleted cell line. The text has this: (§1) HAP1 MTAP-intact is a cell line in which endogenous levels of MTAP are expressed, and HAP1 MTAP-deleted is an MTAP-null cell line.

The test system of test [2] is PRMT5 (SDMA) in HAP1 MTAP-intact cell line. The test is described as follows: SDMA in-cell western assay, HAP1 MTAP-intact cell line. Particulars: Homo sapiens, HAP1 MTAP-intact cell line (endogenous MTAP), read-out: Hap 1 MTAP intact IC50.
Excerpt: as §1

Test [3] has as its system HAP1 MTAP-deleted cell line. The test is described as follows: viability assay for the MTAP-deleted cell line. The conditions noted are these: Homo sapiens.

Data on 16 compounds can be found in patent US20250282749A1 (Tango Therapeutics, Inc., priority 2022, published 2025).

A value given as a limit tells only on which side of the number the result lay.

What is called IC50 is the point on the concentration scale where inhibition reaches its midpoint. For orientation: IC90 means the concentration needed for an effect of 90%. A lower IC90 goes with greater potency. `C[C@@H]1CN(C(=O)C(=O)Nc2cnc(N)c(C3CC3)c2)[C@@H](c2ccc(F)cc2)CN1C(=O)OC(C)(C)C` (stereo in doubt) [Compound 148, tert-butyl 4-(2-((6-amino-5-cyclopropylpyridin-3-yl)amino)-2-oxoacetyl)-5-(4-fluorophenyl)-2-methylpiperazine-1-carboxylate]: in test [1], the IC50 was less than 5 nM, the IC90 was greater than 125 nM and the “Hap1 MTAP intact/deleted ratio” value was “A (an IC50 ratio greater than or equal to 30 fold)”. For the same compound, the IC50 in test [2] is greater than 50 nM. Besides, the IC50 in test [3] was less than 100 nM.
`CCc1cc(NC(=O)C(=O)N2C[C@@H](C)N(C(=O)C3(C(F)(F)F)CC3)C[C@@H]2c2ccc(F)c(Cl)c2)cnc1N` [Compound 139, N-(6-amino-5-ethylpyridin-3-yl)-2-((2S,5R)-2-(3-chloro-4-fluorophenyl)-5-methyl-4-(1-(trifluoromethyl)cyclopropanecarbonyl)piperazin-1-yl)-2-oxoacetamide]: in test [1], the IC50 is less than 5 nM, the IC90 was less than 75 nM and the “Hap1 MTAP intact/deleted ratio” value is “B (an IC50 ratio greater than or equal to 15 fold but lower than 30 fold)”. Moreover, in test [2], the IC50 fell in the range of 5 to 50 nM. The IC50 in test [3] was less than 100 nM.
On to `CC(C)C(=O)N1C[C@H](c2ccccc2)N(C(=O)C(=O)Nc2cnc(N)c(C3CC3)c2)C[C@H]1C` [Compound 98, N-(6-amino-5-cyclopropylpyridin-3-yl)-2-((2S,5R)-4-isobutyryl-5-methyl-2-phenylpiperazin-1-yl)-2-oxoacetamide], for which, in test [1], the IC50 was 5 to 50 nM, the IC90 lay within 75 to 125 nM and the “Hap1 MTAP intact/deleted ratio” value is listed as “C (an IC50 ratio of less than 15 fold)”. Besides, in test [2], the IC50 is greater than 50 nM. This compound came in with a 50% inhibitory concentration (IC50) in test [3] of less than 100 nM.
For `C[C@@H]1CN(C(=O)C(=O)Nc2cncc3cn[nH]c23)[C@@H](c2ccccc2)CN1C(=O)C(C)(C)CN(C)C` [Compound 68, 2-((2S,5R)-4-(3-(dimethylamino)-2,2-dimethylpropanoyl)-5-methyl-2-phenylpiperazin-1-yl)-2-oxo-N-(1H-pyrazolo[4,3-c]pyridin-7-yl)acetamide], the IC50 in test [1] is 5 to 50 nM; in test [2] it was greater than 50 nM; in test [3], 100 to 1000 nM. Also, in test [1], the IC90 lay within 75 to 125 nM. Moreover, the “Hap1 MTAP intact/deleted ratio” value in test [1] was “A (an IC50 ratio greater than or equal to 30 fold)”.
Consider `CCc1cc(NC(=O)C(=O)N2C[C@@H](C)N(C(=O)C(C)(C)CN(C)C)C[C@@H]2c2ccccc2)cnc1N` [Compound 37], for which, in test [1], the IC50 was less than 5 nM, the IC90 was less than 75 nM and the “Hap1 MTAP intact/deleted ratio” value is “A (an IC50 ratio greater than or equal to 30 fold)”. Further, the IC50 in test [2] was greater than 50 nM. The same compound yielded an IC50 in test [3] of less than 100 nM.
The like results for `CCc1cc(NC(=O)C(=O)N2CCN(C(=O)C3(C(F)(F)F)CC3)C[C@H]2c2ccc(F)c(Cl)c2)cnc1N` (single isomer, unassigned) [Compound 123] were, in that order, 5 to 50 nM, greater than 125 nM, “A (an IC50 ratio greater than or equal to 30 fold)”, greater than 50 nM and 100 to 1000 nM.
For the compound `Cc1cc(NC(=O)C(=O)N2C[C@@H](C)N(C(=O)C3(C)CC3)C[C@@H]2c2ccsc2)cnc1N` [Compound 31, N-(6-amino-5-methyl-3-pyridyl)-2-[(2S,5R)-5-methyl-4-(1-methylcyclopropanecarbonyl)-2-(3-thienyl)piperazin-1-yl]-2-oxo-acetamide], in test [1], the concentration for half-maximal inhibition (IC50) was less than 5 nM, the IC90 is greater than 125 nM and the “Hap1 MTAP intact/deleted ratio” value is reported as “B (an IC50 ratio greater than or equal to 15 fold but lower than 30 fold)”. Besides, the IC50 in test [2] is greater than 50 nM. The IC50 in test [3] is less than 100 nM.
Taken in the same sequence, the figures for `C[C@@H]1CN(C(=O)C(=O)Nc2cncc3cn[nH]c23)[C@@H](c2ccc(N3CCN(C)CC3)cc2)CN1C(=O)C(C)(C)C` [Compound 142, 2-((2S,5R)-5-methyl-2-(4-(4-methylpiperazin-1-yl)phenyl)-4-pivaloylpiperazin-1-yl)-2-oxo-N-(1H-pyrazolo[4,3-c]pyridin-7-yl)acetamide] were 5 to 50 nM, less than 75 nM, “C (an IC50 ratio of less than 15 fold)”, greater than 50 nM and less than 100 nM.
Turning to `CCc1cc(NC(=O)C(=O)N2C[C@@H](C)N(C(=O)OC(C)(C)C)C[C@@H]2c2ccc(F)cc2)cnc1N` [Compound 145, (2R,5S)-tert-butyl 4-(2-((6-amino-5-ethylpyridin-3-yl)amino)-2-oxoacetyl)-5-(4-fluorophenyl)-2-methylpiperazine-1-carboxylate], in test [1], the IC50 was in the range of 5 to 50 nM, the IC90 is less than 75 nM and the “Hap1 MTAP intact/deleted ratio” value is “B (an IC50 ratio greater than or equal to 15 fold but lower than 30 fold)”. Moreover, the IC50 in test [2] was greater than 50 nM. The compound further showed an IC50 in test [3] of less than 100 nM.
`C[C@@H]1CN(C(=O)C(=O)Nc2cnc(N)c3c2cnn3C)[C@@H](c2ccccc2)CN1C(=O)C1(C)CC1` [Compound 169, N-(7-Amino-1-methyl-pyrazolo[3,4-c]pyridin-4-yl)-2-oxo-2-[(2S,5R)-5-methyl-4-(1-methylcyclopropanecarbonyl)-2-phenyl-piperazin-1-yl]acetamide]: the IC50 was less than 5 nM in test [1], 5 to 50 nM in test [2] and less than 100 nM in test [3]. Further, the IC90 in test [1] is less than 75 nM. The “Hap1 MTAP intact/deleted ratio” value in test [1] is “C (an IC50 ratio of less than 15 fold)”.
Taken in the same sequence, the figures for `CCc1cc(NC(=O)C(=O)N2CCN(C(=O)C3(C(F)(F)F)CC3)[C@@H](C)[C@@H]2c2ccc(F)cc2)cnc1N` [Compound 1] were 5 to 50 nM, greater than 50 nM, less than 100 nM, 75 to 125 nM and “A (an IC50 ratio greater than or equal to 30 fold)”.
Turning to `C[C@@H]1CN(C(=O)C(=O)Nc2cnc(N)c3cn[nH]c23)[C@@H](c2ccccc2)CN1C(=O)C(C)(C)CN(C)C` [Compound 54, N-(4-amino-1H-pyrazolo[4,3-c]pyridin-7-yl)-2-oxo-2-[(2S,5R)-4-[3-(dimethylamino)-2,2-dimethyl-propanoyl]-5-methyl-2-phenyl-piperazin-1-yl]acetamide], in test [1], the IC50 lay in the range of 5 to 50 nM, the IC90 is less than 75 nM and the “Hap1 MTAP intact/deleted ratio” value is recorded as “C (an IC50 ratio of less than 15 fold)”. In test [2], the IC50 was in the range of 5 to 50 nM. The compound further returned an IC50 in test [3] of less than 100 nM.
For the compound `C[C@@H]1CN(C(=O)C(=O)Nc2cnc(N)c3cn[nH]c23)[C@@H](c2ccc(F)cc2)CN1C(=O)C(C)(C)C` [Compound 46], in test [1], the IC50 is less than 5 nM, the IC90 is less than 75 nM and the “Hap1 MTAP intact/deleted ratio” value is “C (an IC50 ratio of less than 15 fold)”. Also, the IC50 in test [2] lay in the range of 5 to 50 nM. Moreover, the IC50 in test [3] was less than 100 nM.
Regarding `CC(C)CN1C[C@@H](c2ccc(F)cc2)N(C(=O)C(=O)Nc2cnc(N)c(C3CC3)c2)C[C@H]1C` (single isomer, unassigned) [Compound 84], the IC50 in test [1] was 5 to 50 nM; in test [2] it was greater than 50 nM; in test [3], less than 100 nM. For the same compound, in test [1], the IC90 was less than 75 nM. Further, the “Hap1 MTAP intact/deleted ratio” value in test [1] is listed as “A (an IC50 ratio greater than or equal to 30 fold)”.
Taken in the same sequence, the figures for `C[C@@H]1CN(C(=O)C(=O)Nc2cnc(N)c3cn[nH]c23)[C@@H](c2ccccc2)CO1` [Compound 107] were less than 5 nM, greater than 50 nM, 100 to 1000 nM, less than 75 nM and “A (an IC50 ratio greater than or equal to 30 fold)”.
Taken in the same sequence, the figures for `Cc1cc(NC(=O)C(=O)N2C[C@@H](C)N(C(=O)C(C)(C)CN(C)C)C[C@@H]2c2ccccc2)cnc1N` [Compound 13] were 5 to 50 nM, greater than 50 nM, less than 100 nM, less than 75 nM and “C (an IC50 ratio of less than 15 fold)”.
